Active and inactive are the calls of the source. The calls are words filed in the database; no cut-off is given here.

In data set [1] the target is PI3-kinase p110-alpha/p85-alpha (Homo sapiens, UniProt P42336). As to the kind of experiment: Inhibition of human N-terminal poly-His tagged p110 alpha/ p85alpha expressed in Sf9 Baculovirus system after 20 mins by AlphaScreen assay. A general note: Bead proximity is the source of the signal in Alpha formats.
Data set [2] has as its target Serine/threonine-protein kinase mTOR (Homo sapiens, UniProt P42345). Nature of the data set: Inhibition of recombinant N-terminally GST-tagged mTOR (1360 to 2549 aa) (unknown origin) assessed as inhibition of 27BP1 phosphorylation after 90 mins by TR-FRET assay. (In TR-FRET formats the signal depends on donor and acceptor labels being close together.)
Data set [3] can be described thus: Inhibition of PI3K-mediated Akt S473 phosphorylation in human U87MG cells after 2 hrs by cell-based assay. As to conditions: U-87 MG. Further details: species or system U-87MG ATCC.
Data set [4] in a line: Intrinsic clearance in human liver microsomes at 1 uM after 30 mins. Format: ADME. As to conditions: read-out: CLH.
Data set [5] can be described thus: Intrinsic clearance in rat liver microsomes at 1 uM after 30 mins. Format: ADME. As to conditions: read-out: CLH.
The test system of a further data set is P-gp. Nature of the data set: Efflux ratio of permeability across pig LLC-PK1 cells stably over-expressing rat P-gp at 5 uM. Type of data set: ADME, cell-based, Sus scrofa.
Data set [6] can be described thus: Clearance in Sprague-Dawley rat at 1 mg/kg, iv and 2 mg/kg, po. Type of data set: ADME, organism-based. The settings on record: in vivo.
The nature of data set [7]: Volume of distribution at steady state in Sprague-Dawley rat at 1 mg/kg, iv and 2 mg/kg, po. The settings on record: in vivo, read-out: Vdss. Format: ADME, organism-based.
Data set [8] in a line: Terminal half life in Sprague-Dawley rat at 1 mg/kg, iv and 2 mg/kg, po. Format: ADME, organism-based. As to conditions: in vivo, read-out: beta t1/2 (converted).
Data set [9] can be described thus: Fraction unbound in Sprague-Dawley rat plasma at 1 mg/kg, iv and 2 mg/kg, po. Format: ADME, organism-based.
Data set [10] deals with Mus musculus. Nature of the data set: Inhibition of HGF-induced PI3K-mediated Akt phosphorylation at Ser473 in female CD1 nude mouse liver at 10 to 30 mg/kg, po administered 6 hrs prior HGF treatment measured after 5 mins by electrochemical luminescence immunoassay. Format: functional, organism-based.
Data set [11] concerns Mus musculus. Nature of the data set: Inhibition of HGF-induced PI3K-mediated Akt phosphorylation at Ser473 in female CD1 nude mouse liver compound administered orally 6 hrs prior HGF treatment measured after 5 mins by electrochemical luminescence immunoassay. Type of data set: functional, organism-based.
Data set [12] in a line: Oral bioavailability in Sprague-Dawley rat at 2 mg/kg. Format: ADME, organism-based. The settings on record: in vivo.

Chain of PI3-kinase p110-alpha/p85-alpha (P27986 whole entry, the tested form may be a part): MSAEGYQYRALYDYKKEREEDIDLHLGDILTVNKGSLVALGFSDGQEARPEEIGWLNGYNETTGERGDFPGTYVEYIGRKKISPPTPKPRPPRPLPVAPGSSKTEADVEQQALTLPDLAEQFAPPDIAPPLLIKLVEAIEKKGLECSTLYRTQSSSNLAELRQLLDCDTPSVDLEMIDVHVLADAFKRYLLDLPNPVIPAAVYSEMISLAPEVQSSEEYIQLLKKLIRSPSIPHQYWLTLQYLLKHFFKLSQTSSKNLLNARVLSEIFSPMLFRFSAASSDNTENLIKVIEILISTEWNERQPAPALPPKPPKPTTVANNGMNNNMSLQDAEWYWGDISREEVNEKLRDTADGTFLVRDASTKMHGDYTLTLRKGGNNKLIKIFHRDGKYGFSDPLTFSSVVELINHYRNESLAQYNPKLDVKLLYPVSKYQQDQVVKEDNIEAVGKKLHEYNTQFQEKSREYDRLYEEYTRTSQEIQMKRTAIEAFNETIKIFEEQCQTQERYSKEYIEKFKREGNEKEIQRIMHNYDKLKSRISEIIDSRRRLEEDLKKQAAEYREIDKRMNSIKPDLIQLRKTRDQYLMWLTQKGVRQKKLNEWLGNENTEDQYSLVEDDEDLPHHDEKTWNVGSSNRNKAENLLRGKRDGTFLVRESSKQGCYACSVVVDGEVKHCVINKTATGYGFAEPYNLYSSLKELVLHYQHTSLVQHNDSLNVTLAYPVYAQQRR
Chain of PI3-kinase p110-alpha/p85-alpha (P42336 whole entry, the tested form may be a part): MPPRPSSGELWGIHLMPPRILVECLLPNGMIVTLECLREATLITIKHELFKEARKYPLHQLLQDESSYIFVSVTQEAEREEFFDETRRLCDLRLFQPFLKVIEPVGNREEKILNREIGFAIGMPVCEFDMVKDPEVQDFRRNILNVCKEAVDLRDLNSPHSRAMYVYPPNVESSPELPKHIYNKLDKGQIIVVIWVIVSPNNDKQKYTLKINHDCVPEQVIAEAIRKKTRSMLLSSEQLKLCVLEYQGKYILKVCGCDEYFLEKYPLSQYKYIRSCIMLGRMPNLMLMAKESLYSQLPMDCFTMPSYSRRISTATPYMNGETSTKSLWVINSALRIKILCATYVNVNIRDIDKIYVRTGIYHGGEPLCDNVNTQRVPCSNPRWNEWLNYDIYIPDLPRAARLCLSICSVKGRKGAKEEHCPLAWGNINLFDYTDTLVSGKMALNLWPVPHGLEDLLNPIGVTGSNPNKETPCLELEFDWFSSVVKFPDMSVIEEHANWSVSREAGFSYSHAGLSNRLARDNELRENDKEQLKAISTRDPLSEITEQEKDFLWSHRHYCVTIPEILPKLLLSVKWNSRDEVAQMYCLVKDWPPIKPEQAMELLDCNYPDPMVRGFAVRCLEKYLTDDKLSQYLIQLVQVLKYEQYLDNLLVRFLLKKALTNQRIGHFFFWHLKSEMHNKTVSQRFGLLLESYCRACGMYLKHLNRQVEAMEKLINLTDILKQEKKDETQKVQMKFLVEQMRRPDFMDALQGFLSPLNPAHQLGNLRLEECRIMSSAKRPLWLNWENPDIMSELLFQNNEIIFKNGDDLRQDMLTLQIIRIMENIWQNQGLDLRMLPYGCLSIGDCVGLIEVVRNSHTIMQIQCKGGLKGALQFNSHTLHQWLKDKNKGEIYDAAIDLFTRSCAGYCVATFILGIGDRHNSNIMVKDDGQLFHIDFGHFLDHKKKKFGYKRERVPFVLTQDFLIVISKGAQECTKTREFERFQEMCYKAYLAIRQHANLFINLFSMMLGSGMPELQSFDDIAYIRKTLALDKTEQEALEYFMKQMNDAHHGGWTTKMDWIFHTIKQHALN

In the case of `COc1ncc(Nc2ncc([C@@H](C)O)cc2-c2nc(C)nc(N)n2)cc1F`, the inhibitory constant (Ki) – broadly, the equilibrium dissociation constant of an inhibitor or competing ligand from its target – in data set [1] amounted to 40 nM. Further, the 50% inhibitory concentration (IC50) (commonly the concentration that inhibits the measured activity by half) was more than 25000 nM in data set [2] and 20 nM in data set [3]. For the same molecule, the microsomal CLint at 1 µM came to 22 µL/min/mg in data set [4] and 45 µL/min/mg in data set [5].

As to `Cc1nc(N)nc(-c2cc(C(C)(C)O)cnc2Nc2cncc(S(=O)(=O)c3ccccc3)c2)n1`, the inhibitory constant (Ki) in data set [1] was found to be 224 nM. Besides, the IC50 in data set [2] stood at 6700 nM.

Consider `COc1ncc(Nc2ncc(C(C)(C)O)cc2-c2nc(C)nc(N)n2)cc1C(F)(F)F`, for which, in data set [2], the 50% inhibitory concentration (IC50) was more than 25000 nM.

`COc1ncc(Nc2ncccc2-c2nc(C)nc(N)n2)cc1F`: the affinity in [1], expressed as Ki, was 48 nM. In addition, the half-inhibitory concentration (IC50) in [2] is more than 22000 nM. In addition, the microsomal CLint at 1 µM in data set [4] was 99 µL/min/mg; in data set [5] it was 36 µL/min/mg.

In turn, `COc1ncc(Nc2ncc([C@H](C)O)cc2-c2nc(C)nc(N)n2)cc1F` showed a Ki in data set [1] of 48 nM. Moreover, the IC50 was more than 25000 nM in [2] and 26 nM in [3]. For the same molecule, the microsomal CLint at 1 µM in [4] and in data set [5] was less than 14 µL/min/mg throughout.

Turning to `COc1ncc(Nc2ncc(C(C)(C)O)cc2-c2nc(C)nc(N)n2)cc1C(C)C`, the Ki in [1] is 153 nM. Also, the half-inhibitory concentration (IC50) in data set [2] was more than 25000 nM; in data set [3] it was 414 nM.

Take `COc1cc(Nc2ncc(C(C)(C)O)cc2-c2nc(C)nc(N)n2)cnc1OC`: the efflux ratio (in general, a quotient of directional permeabilities that is used to spot active efflux) at 5 µM with P-gp amounted to 25. Besides, the affinity in data set [1] corresponds to a Ki of 30 nM. Moreover, the half-maximal inhibitory concentration (IC50) in data set [2] was found to be 10600 nM; in data set [3], 10 nM. Further, the microsomal CLint at 1 µM in [4] and in data set [5] was less than 14 µL/min/mg throughout. In [6], this molecule gave a clearance of 21.7 mL/min/kg. In data set [7], the Vd came out at 4.2 L/kg. Further, in [8], the half-life is 4.8 h.

In data set [1], `Cc1nc(N)nc(-c2cc(C(C)(C)O)cnc2Nc2cncc(F)c2)n1` had a Ki of 87 nM. In addition, the IC50 in data set [2] came to 2500 nM. Also, the microsomal CLint at 1 µM was less than 14 µL/min/mg in data set [4] and 15 µL/min/mg in [5].

As to `COc1ncc(Nc2ncc(CO)cc2-c2nc(C)nc(N)n2)cc1F`, the inhibition constant (Ki) in data set [1] came out at 56 nM. Also, the IC50 in data set [2] was more than 15000 nM; in data set [3] it was 44 nM. For the same molecule, the microsomal CLint at 1 µM in data set [5] turned out to be 51 µL/min/mg.

Turning to `Cc1nc(N)nc(-c2cc(C(C)(C)O)cnc2Nc2cncc(S(C)(=O)=O)c2)n1`, the half-inhibitory concentration (IC50) was more than 16000 nM in data set [2] and 1160 nM in data set [3]. Further, the microsomal CLint at 1 µM in data set [4] and in data set [5] was less than 14 µL/min/mg in each case.

In [1], `COc1ncc(Nc2ncc(C3(O)CC3)cc2-c2nc(C)nc(N)n2)cc1F` had a Ki of 16 nM. For the same molecule, the concentration for half-maximal inhibition (IC50) came out at 3700 nM in [2] and 18 nM in data set [3]. The microsomal CLint at 1 µM in [4] was found to be 39 µL/min/mg; in [5], 79 µL/min/mg.

Turning to `COc1ncc(Nc2ncc(C(C)(C)O)cc2-c2nc(C)nc(N)n2)cc1F`, the fraction unbound (usually free concentration divided by total concentration) in data set [9] is 0.06. For the same molecule, the inhibition result in the data set with Mus musculus [10] is “Active”. Also, in the data set on Mus musculus [11], the inhibition result is “Dose-dependent effect”. For the same molecule, the Ki in data set [1] was 23 nM. For the same molecule, in data set [2], the 50% inhibitory concentration (IC50) stood at 7800 nM. The microsomal CLint at 1 µM in [4] is less than 14 µL/min/mg; in data set [5] it was 23 µL/min/mg. For the same molecule, the clearance in [6] is 18.3 mL/min/kg. The Vd in data set [7] came to 1.7 L/kg. The half-life in data set [8] was 3.1 h. The bioavailability – broadly, dose-corrected exposure relative to a reference, in per cent – in [12] came to 37%.

In the case of `COc1ncc(Nc2ncc(C(O)C(F)(F)F)cc2-c2nc(C)nc(N)n2)cc1F` (racemic), the Ki in data set [1] was found to be 30 nM. The IC50 in [2] was 2200 nM. Moreover, the microsomal CLint at 1 µM in [4] came out at 18 µL/min/mg; in [5], 34 µL/min/mg.

In turn, `CCc1cc(Nc2ncc(C(C)(C)O)cc2-c2nc(C)nc(N)n2)cnc1OC` yielded an inhibitory constant (Ki) in data set [1] of 469 nM. Also, the figures for the IC50 in data set [2] and in data set [3] were 15800 nM and 470 nM, respectively.

In the case of `COc1cncc(Nc2ncc(C(C)(C)O)cc2-c2nc(C)nc(N)n2)c1`, the affinity in data set [1], expressed as Ki, was 89 nM. Further, the 50% inhibitory concentration (IC50) in data set [2] worked out at 2100 nM. The values for the microsomal CLint at 1 µM in data set [4] and in data set [5] were 17 µL/min/mg and 19 µL/min/mg, respectively.

In [1], `COc1ncc(Nc2ncc([C@@H](C)CO)cc2-c2nc(C)nc(N)n2)cc1F` showed a Ki of 40 nM. The IC50 in [2] was more than 15000 nM. Further, the microsomal CLint at 1 µM in data set [4] is less than 14 µL/min/mg; in data set [5], 37 µL/min/mg.

In data set [1], `COc1ncc(Nc2ncc([C@H](C)CO)cc2-c2nc(C)nc(N)n2)cc1F` returned an inhibition constant Ki of 26 nM. The IC50 in [2] amounted to 11100 nM. For the same molecule, the microsomal CLint at 1 µM in data set [4] was found to be 14 µL/min/mg; in data set [5], 36 µL/min/mg.

`COc1ccc(Nc2ncc(C(C)(C)O)cc2-c2nc(C)nc(N)n2)cn1` registered a Ki in data set [1] of 89 nM. Further, the IC50 came out at 790 nM in data set [2] and 48 nM in [3]. The figures for the microsomal CLint at 1 µM in data set [4] and in data set [5] were less than 14 µL/min/mg and 19 µL/min/mg, respectively.

`COc1ncc(Nc2ncc(C(C)(C)O)cc2-c2nc(C)nc(N)n2)cc1C` yielded a Ki in data set [1] of 118 nM. The IC50 in data set [2] stood at 7800 nM; in data set [3], 49 nM. For the same molecule, the microsomal CLint at 1 µM was less than 14 µL/min/mg in data set [4] and 22 µL/min/mg in [5].

Consider `COc1ncc(Nc2ncc(C(C)(C)CO)cc2-c2nc(C)nc(N)n2)cc1F`, for which, in [1], the inhibition constant (Ki) amounted to 40 nM. Besides, the half-maximal inhibitory concentration (IC50) in data set [2] is more than 17000 nM. In addition, the microsomal CLint at 1 µM in [4] and in data set [5] was 34 µL/min/mg each time.

The molecule `COc1ncc(Nc2ncc([C@@H](C)N3CCN(S(C)(=O)=O)CC3)cc2-c2nc(C)nc(N)n2)cc1F` registered a fraction unbound in data set [9] of 0.08. For the same molecule, in data set [5], the microsomal CLint at 1 µM turned out to be 20 µL/min/mg. The molecule further had a clearance in [6] of 7.5 mL/min/kg. The half-life in data set [8] is 3.3 h.
